Assays:
22RV1/PIM-1 = 22RV1/PIM-1 over-expression tumor xenograft; type: in vivo, mouse
Text: (§1) Male and female Nu/Nu mice were purchased from Harlan Sprague Dawley (Indianapolis, IN). Female Nu/Nu mice were used for all xenograft evaluations with the exception of the PC-3 xenografts where male Nu/Nu mice were used. Cell lines were expanded In vitro in complete media, and if adherent were harvested by trypsin-EDTA, centrifuged and resuspended in PBS 1:1 with Matrigel (BD Bioscienes). Cells were inoculated subcutaneously in the right hind flank of mice. When tumors reached 100-200 mm^3 by caliper measurement, mice were randomized and dosing of SGI-9481 or vehicle control began and continued every day for 5 days (QDx5) with 2 days off for 18-21 days. Tumor volumes and body weights were determined twice a week, and tumor weights were measured at the completion of the translational xenograft studies.
(§2) . The prostate cancer cell line 22RV1 engineered to over-express PIM-1 as previously described (Mumenthaler, et al, Mol. Cancer Ther., 2009, 8(10)2882-93) was evaluated in vivo. A second model engineered to over-express PIM-2 was established using the NIH-3T3 mouse fibroblast cell line. […]. […].

NIH-3T3/PIM-2 = NIH-3T3/PIM-2 over-expression tumor xenograft; type: in vivo, mouse
Text: as §1, §2

UM-UC-3 cells = experiment: Colony formation assay, UM-UC-3; type: cell-based
Experimental: (§3) For shRNA growth experiments, 500 UM-UC-3 cells were seeded in a 12-well plate 48 hours post-transduction and cultured for 8-10 days at 37°C in 5% CO2. Cells were fixed with 4% paraformaldehyde in PBS, washed twice with PBS, and stained with a crystal violet solution (1% crystal violet, 10% ethanol in water). Stained cells were washed thrice with water, and imaged after drying on a GelCount colony counter (Oxford Optronix Ltd., Oxford, UK). Total staining intensity per well was determined by lysis of cells with 200 µl of Triton X-100 lysis buffer (1% Triton X-100, 50 mM Tris-HCl pH 7.4, 150 mM NaCl, 1 mM EDTA). Lysates (100 µl) from each well were transferred to a clear 96-well plate and absorbance at 560 nm was determined on an Envision microplate reader. IC50 values were determined using GraphPad Prism software. For compound treated PC-3 and UM-UC-3, cells were seeded and stained as above, but were incubated with various concentrations of test compound or DMSO one day after seeding.
(§4) Translational models were also explored for PIM dependency using shRNA knockdown. The UM-UC-3 urinary epithelial bladder carcinoma cell line was used to verify and validate dependency on PIM-1 for growth.

PC-3 cells = experiment: Colony formation assay, PC-3; type: cell-based
Experimental: as §3, §4

UM-UC-3 = experiment: Established UM-UC-3 mouse xenograft tumors; type: in vivo
Text: as §1

PC-3 = experiment: Established PC-3 mouse xenograft tumors; type: in vivo
Text: as §1

[1] = system: phosphatidyl inositol-3-kinase (PI3K) family; experiment: Selectivity study; type: biochemical; settings: data not given
[2] = system: ML-2 cells (wild-type FLT3); experiment: ML-2 mouse xenograft study; type: in vivo; settings: ML-2 xenografts (wild-type FLT3)
Text: as §1

MV-4-11 (FLT3-ITD) = experiment: MV-4-11 mouse xenograft study; type: in vivo; settings: MV-4-11 xenografts (FLT3-ITD)
Text: as §1

[3] = 125 mg/kg, less than with 200 mg/kg

With `CC(C)(O)[C@H]1CC[C@H](Nc2ccc3ncc(-c4cccc(C(F)(F)F)c4)n3n2)CC1` [8-31] the subcutaneous tumor growth (22RV1/PIM-1; 22RV1/PIM-1 + compound vs. 22RV1/PIM-1 + vehicle) was “significantly reduced”, the body weight (22RV1/PIM-1; 22RV1/PIM-1 xenograft mice) was “No significant changes in body weight” and the subcutaneous tumor growth (NIH-3T3/PIM-2; NIH-3T3/PIM-2 + compound vs. NIH-3T3/PIM-2 + vehicle) was “significantly inhibited”. For the same compound, the body weight (NIH-3T3/PIM-2; NIH-3T3/PIM-2 xenograft mice) was “No significant changes in body weight”, the colony growth (UM-UC-3 cells) was “reduced colony growth” and the colony growth (PC-3 cells) was “reduced colony growth”. The tumor growth inhibition (UM-UC-3; [3]) was “significant tumor growth inhibition”, the “body weight or gross adverse toxicity” value (UM-UC-3; oral dosing of 200 mg/kg) was “no significant changes in body weight or gross adverse toxicity” and the “tumor growth measured by volume (caliper) and by final tumor weight” value (UM-UC-3; oral dosing of 200 mg/kg) was “significantly reduced”. The tumor growth inhibition (PC-3; [3]) was “significant tumor growth inhibition”, the “plasma and tumor tissue levels” value (PC-3; PC-3 tumor-burdened mice, 200 mg/kg) was “above the in vitro proliferation EC50” and the “body weight or gross adverse toxicity” value (PC-3; oral dosing of 200 mg/kg) was “no significant changes in body weight or gross adverse toxicity”. For the same compound, the “tumor growth measured by volume (caliper) and by final tumor weight” value (PC-3; oral dosing of 200 mg/kg) was “significantly reduced”, the “inhibitory activity against multiple members of the PI3K family” value [1] was “inhibitory activity” and the tumor growth inhibition [2] was “significant tumor growth inhibition”. For the same compound, the “effect on established xenografts” value (MV-4-11 (FLT3-ITD)) was “induced regressions”.

From EP3409278B1, “HETEROCYCLIC PROTEIN KINASE INHIBITORS” (Tolero Pharmaceuticals, Inc., priority 2011, dated 2013)
